In this assay the target is T1, pDSIP (Oryctolagus cuniculus, UniProt P01158).
T1 construct: purchased SynPep Corporation
Nature of the assay: Phosphopeptide detection on HydroGel microarray. Particulars: monophosphorylated peptide, binding solution with gallium chloride. The method, then:
The peptide was loaded in a two-fold dilution series from […] on the microarray.
Two peptides, Kemptide and pDSIP, were arrayed on to HydroGel coated slides (Perkin Elmer) from a source plate (384-well) with a concentration of 0.03125 to 2 mg/mL peptide in water. The amino acid sequence of Kemptide is LRRASLG (SEQ ID NO. 1, MW 771.9) the amino acid sequence of pDSIP is […] (SEQ ID NO. 2, MW 929.5), wherein the serine residue is substituted with PO2H. Arrays were spotted using a manual glass slide arrayer (V & P Scientific, San Diego, Calif.) fixed with 4 rows of 8 pins (32 total), ˜500 micron diameter spot size, […] horizontal pitch and 750 micron vertical pitch (pitch=center to center spacing of spots). The hand arrayer collected 6 nL of peptide from the source plate and transferred ˜6 nL to the array surface by direct contact. The resultant peptide concentration was 0.18 to 12 ng/spot. Peptides were arrayed in replicates of 6, resulting in an array of 84 spots. For specific detection of pDSIP, the phosphopeptide, slides were incubated for 1 hour on a rotator in 1 μM dye of compound 2 in buffer containing 0.5 M NaCl, 20% 1,2-propanediol, 1 μM GaCl3, and 0.05 M NaOAc, pH 4.0. Slides were then washed for 1 hour on a rotator in 0.05 M NaOAc, pH 4.0, containing 10% methanol followed by a 15-minute water wash. […]

From patent US7445894B2, “Compositions and methods for detection and isolation of phosphorylated molecules” (priority 2002, dated 2008) come the findings set out here.

Rhod-5F [Compound 2]: the “amount detectable on HydroGel microarray” value came out at 300 fg.
